# Experimental data from publication PMC8179156, “Retrograde sulfur flow from glucosinolates to cysteine in Arabidopsis thaliana” (Proceedings of the National Academy of Sciences of the …, 2021).
# Assays:
# Format in all cases: biochemical
# AtTGG1-His6 = molecular target: T1, AtTGG1-His6 (Arabidopsis thaliana, UniProt P37702); test: D-glucose release, extract of expressing N. benthamiana leaves; conditions: crude extract; His6-GFP control at background
# T1 construct: gene TGG1; His6 tag (printed AtTGG1-His6); transient expression in Nicotiana benthamiana leaves; crude protein extract
# AtBGLU28-His6 = molecular target: T2, AtBGLU28-His6 (Arabidopsis thaliana, UniProt Q4V3B3); test: as above; conditions: crude extract; His6-GFP control at background
# T2 construct: gene BGLU28; C-terminal His6 tag; transient expression in Nicotiana benthamiana leaves; crude protein extract
# T2 sequence (Q4V3B3 22-582): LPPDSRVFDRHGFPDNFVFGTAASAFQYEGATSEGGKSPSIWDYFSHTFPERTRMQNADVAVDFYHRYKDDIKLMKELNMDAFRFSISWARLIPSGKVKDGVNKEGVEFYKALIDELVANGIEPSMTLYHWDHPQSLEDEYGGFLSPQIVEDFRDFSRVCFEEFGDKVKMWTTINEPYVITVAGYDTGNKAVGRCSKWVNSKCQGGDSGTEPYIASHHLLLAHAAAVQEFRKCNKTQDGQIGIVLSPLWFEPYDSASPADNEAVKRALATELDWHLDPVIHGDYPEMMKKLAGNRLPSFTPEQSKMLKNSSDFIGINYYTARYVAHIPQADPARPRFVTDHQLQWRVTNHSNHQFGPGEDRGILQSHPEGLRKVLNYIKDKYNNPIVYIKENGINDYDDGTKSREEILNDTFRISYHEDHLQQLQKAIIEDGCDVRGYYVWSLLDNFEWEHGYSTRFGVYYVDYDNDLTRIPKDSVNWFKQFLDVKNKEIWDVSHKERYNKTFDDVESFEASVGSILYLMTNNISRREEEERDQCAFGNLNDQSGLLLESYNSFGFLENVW
# AtOXP1 [1] = molecular target: T3, AtOXP1 (Arabidopsis thaliana, UniProt Q9FIZ7); test: Cys production in crude seedling extract, WT versus oxp1-1; conditions: native crude extract; stereochemistry of pCys not given
# T3 construct: gene OXP1; native enzyme in crude protein extract of 14-d-old seedlings; assigned by comparison with oxp1-1 mutant
# T3 sequence (Q9FIZ7 1-1266): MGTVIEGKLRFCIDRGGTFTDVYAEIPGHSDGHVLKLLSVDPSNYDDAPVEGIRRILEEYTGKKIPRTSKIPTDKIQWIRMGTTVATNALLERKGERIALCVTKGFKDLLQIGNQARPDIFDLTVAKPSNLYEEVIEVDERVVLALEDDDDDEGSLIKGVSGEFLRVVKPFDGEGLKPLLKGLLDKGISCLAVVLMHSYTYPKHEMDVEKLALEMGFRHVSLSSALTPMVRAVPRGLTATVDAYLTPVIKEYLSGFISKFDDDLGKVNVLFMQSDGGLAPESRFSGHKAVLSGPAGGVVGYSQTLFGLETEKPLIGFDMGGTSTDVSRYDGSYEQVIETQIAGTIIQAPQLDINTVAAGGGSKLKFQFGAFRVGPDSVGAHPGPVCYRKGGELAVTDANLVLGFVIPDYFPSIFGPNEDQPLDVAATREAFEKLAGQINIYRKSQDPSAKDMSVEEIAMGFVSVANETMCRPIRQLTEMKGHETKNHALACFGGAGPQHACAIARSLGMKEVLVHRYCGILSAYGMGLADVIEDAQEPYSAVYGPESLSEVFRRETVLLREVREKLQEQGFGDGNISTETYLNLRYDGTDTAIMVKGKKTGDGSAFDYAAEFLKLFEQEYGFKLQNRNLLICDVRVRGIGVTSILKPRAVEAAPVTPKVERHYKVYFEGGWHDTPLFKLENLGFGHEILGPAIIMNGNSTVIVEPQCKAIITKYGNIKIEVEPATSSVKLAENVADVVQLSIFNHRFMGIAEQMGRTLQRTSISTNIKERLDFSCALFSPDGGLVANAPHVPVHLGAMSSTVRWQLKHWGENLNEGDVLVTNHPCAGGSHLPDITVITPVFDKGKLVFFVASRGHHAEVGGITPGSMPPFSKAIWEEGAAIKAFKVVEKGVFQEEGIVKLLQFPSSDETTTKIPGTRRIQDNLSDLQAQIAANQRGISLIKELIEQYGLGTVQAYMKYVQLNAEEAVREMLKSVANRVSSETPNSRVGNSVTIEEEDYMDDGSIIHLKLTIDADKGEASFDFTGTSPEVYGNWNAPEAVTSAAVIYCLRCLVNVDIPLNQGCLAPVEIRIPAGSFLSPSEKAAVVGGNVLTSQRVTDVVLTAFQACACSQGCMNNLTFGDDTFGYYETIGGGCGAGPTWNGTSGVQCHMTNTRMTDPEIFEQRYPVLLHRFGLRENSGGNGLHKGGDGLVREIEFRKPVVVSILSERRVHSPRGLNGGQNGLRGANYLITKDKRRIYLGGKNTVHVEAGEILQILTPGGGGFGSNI
# AtOXP1 [2] = molecular target: T3, AtOXP1; test: Glu production in crude seedling extract, WT versus oxp1-1; conditions: native crude extract; stereochemistry of 5OP not given
# T1 sequence (P37702 20-541): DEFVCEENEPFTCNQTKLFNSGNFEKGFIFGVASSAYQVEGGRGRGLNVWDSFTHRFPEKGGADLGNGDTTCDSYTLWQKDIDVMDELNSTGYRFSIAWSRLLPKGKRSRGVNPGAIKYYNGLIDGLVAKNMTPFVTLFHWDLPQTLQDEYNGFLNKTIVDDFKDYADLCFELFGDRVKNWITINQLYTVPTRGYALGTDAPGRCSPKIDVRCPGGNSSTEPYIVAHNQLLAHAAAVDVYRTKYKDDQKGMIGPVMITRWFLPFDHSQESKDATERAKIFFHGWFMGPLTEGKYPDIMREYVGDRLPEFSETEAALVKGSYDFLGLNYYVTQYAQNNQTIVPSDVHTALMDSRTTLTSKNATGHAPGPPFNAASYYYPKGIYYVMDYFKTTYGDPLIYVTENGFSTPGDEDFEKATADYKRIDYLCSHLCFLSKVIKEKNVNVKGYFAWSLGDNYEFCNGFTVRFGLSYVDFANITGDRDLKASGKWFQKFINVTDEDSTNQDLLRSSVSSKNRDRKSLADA
SMILES,"D-glucose release, extract of expressing N. benthamiana leaves (AtTGG1-His6)","D-glucose release, extract of expressing N. benthamiana leaves (AtBGLU28-His6)","Cys production in crude seedling extract, WT versus oxp1-1 (AtOXP1 [1])","Glu production in crude seedling extract, WT versus oxp1-1 (AtOXP1 [2])"
"O=S(=O)(O)O/N=C(/CCc1ccccc1)S[C@@H]1O[C@H](CO)[C@@H](O)[C@H](O)[C@H]1O [PhE, 2-Phenylethyl glucosinolate]",the extract containing AtTGG1-His6 hydrolyzed all the tested GLs at similar rates,"exhibited higher rates of hydrolysis against 4MTB, benzyl glucosinolate, and PhE",,
"O=C1N[C@H](C(=O)O)CS1 [pCys, 1,3-thiazolidin-2-one-4-carboxylic acid]",,,"supporting that AtOXP1 can hydrolyze pCys, as reported for OPases in other organisms",
"O=C1CC[C@@H](C(=O)O)N1 [5OP, 5-oxoproline]",,,,lower rate of Cys production than the WT as observed for the Glu production from 5OP
"CSCCCC/C(=N/OS(=O)(=O)O)S[C@@H]1O[C@H](CO)[C@@H](O)[C@H](O)[C@H]1O [4MTB, 4-Methylthio-n-butyl glucosinolate]",the extract containing AtTGG1-His6 hydrolyzed all the tested GLs at similar rates,"exhibited higher rates of hydrolysis against 4MTB, benzyl glucosinolate, and PhE",,
